The values that follow are results of earlier work, collected in US20230149402A1, “SOLID PHARMACEUTICAL PREPARATION, PREPARATION METHOD THEREFOR AND USE THEREOF” (SHANGHAI HAIYAN PHARMACEUTICAL TECHNOLOGY CO., LTD, priority 2020, published 2023).

For orientation: IC50 means the concentration needed to halve the response being measured.

One series deals with T1, hOX2R (Homo sapiens, UniProt O43614).
T1 sequence (O43614 1-444): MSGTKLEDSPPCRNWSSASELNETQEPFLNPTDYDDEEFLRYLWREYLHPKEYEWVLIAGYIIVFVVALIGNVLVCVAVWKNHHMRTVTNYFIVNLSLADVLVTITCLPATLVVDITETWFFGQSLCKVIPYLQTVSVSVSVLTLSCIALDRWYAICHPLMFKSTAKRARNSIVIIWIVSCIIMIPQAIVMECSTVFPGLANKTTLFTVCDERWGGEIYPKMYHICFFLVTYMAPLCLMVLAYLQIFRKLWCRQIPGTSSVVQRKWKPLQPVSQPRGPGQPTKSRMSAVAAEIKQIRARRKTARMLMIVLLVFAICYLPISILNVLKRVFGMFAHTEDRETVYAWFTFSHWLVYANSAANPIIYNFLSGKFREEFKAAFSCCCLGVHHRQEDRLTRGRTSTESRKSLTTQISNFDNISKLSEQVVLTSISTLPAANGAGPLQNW
As to conditions: FLIPR, read-out: IC50, inhibitory effect on OX2 GPCR receptor.

In another series the target is T2, hOX1R (Homo sapiens, UniProt O43613).
T2 sequence (O43613 1-425): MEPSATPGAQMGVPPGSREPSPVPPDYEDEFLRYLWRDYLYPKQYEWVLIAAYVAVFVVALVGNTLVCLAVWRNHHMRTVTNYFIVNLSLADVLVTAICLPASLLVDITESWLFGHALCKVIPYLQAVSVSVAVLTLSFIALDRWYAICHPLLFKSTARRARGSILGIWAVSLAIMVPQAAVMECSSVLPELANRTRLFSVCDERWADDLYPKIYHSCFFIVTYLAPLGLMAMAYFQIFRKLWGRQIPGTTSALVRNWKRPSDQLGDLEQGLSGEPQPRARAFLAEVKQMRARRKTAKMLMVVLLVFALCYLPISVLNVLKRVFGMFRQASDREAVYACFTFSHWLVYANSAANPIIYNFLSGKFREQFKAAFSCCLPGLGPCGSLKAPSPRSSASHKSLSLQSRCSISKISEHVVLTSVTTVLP
As to conditions: FLIPR, read-out: IC50, inhibitory effect on OX1 GPCR receptor.

Turning to `Cc1ccc(-c2ncccn2)c(C(=O)N2[C@H]3CC[C@@H](COc4ccc(F)cn4)[C@@H]2CC3)c1` [compound of formula (II), ((1S,2R,5S)-2-(((5-fluoropyridin-2-yl)oxy)methyl)-8-azabicyclo[3.2.1]octan-8-yl)(5-methyl-2-(pyrimidin-2-yl)phenyl)methanone], the IC50 on hOX2R was 0.036 µM; on hOX1R, 0.02 µM.
